# Where two headings read alike, the source gives them in different places. Residues, ends and D or L forms follow the SMILES beside them.
# Experiments:
# PLCG1-C SH2 domain = target: T1, PLCG1-C SH2 domain (Homo sapiens, UniProt P19174); experiment: biochemical; format: binding; conditions: high-confidence ErbB interactions
# T1 construct: The 6X His-tagged SH2 domain proteins used in the assay, PLCG1-C, SHC4, VAV2; thioredoxin; made in house; host or cells: E. coli BL21(DE3)pLysS
# T1 sequence (P19174 668-756 limits assumed): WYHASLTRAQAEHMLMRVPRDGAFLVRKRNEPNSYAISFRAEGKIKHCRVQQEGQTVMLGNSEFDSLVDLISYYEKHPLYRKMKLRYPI
# [1] = target: T2, PLCG1-NC tandem SH2 domains (Homo sapiens, UniProt P19174); experiment: FP saturation binding assay; conditions: protein PLCG1-NC; FP, high-confidence ErbB interactions; mean of replicate hits
# T2 construct: the tandem protein was included in our analysis with all internal amino acids linking the domains; 6X His; thioredoxin; made in house; host or cells: E. coli BL21(DE3)pLysS
# T2 sequence (P19174 550-756 limits assumed): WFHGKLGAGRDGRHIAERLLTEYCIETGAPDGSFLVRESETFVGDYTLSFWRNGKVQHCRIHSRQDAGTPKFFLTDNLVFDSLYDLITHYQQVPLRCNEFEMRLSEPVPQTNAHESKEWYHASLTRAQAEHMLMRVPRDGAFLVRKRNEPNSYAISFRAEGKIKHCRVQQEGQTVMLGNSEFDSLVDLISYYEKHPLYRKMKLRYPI
# Procedure: (See Figure 1A) Rhodamine-labeled peptides were dissolved in assay buffer (20 mM HEPES, 100 mM KCl, 0.1% Tween-20, 5 mM DTT, pH 7.8), diluted to a concentration of 20 nM, and plated into black 384-well plates (Corning, Corning, NY) at 5 µL/well using a Perkin Elmer EP3 pipetting workstation (V&P Scientific, Inc., San Diego, CA). SH2, PTB, and thioredoxin control proteins were plated into the first column of 2 mL 96-well plates (Corning) at a concentration of 20 µM and serially diluted 1∶2 into freezing buffer (300 mM NaCl, 50 mM Na2PO4, pH 8, 20% glycerol v/v) eleven times using a Tecan Freedom EVO 100 workstation (Tecan, Männedorf, Switzerland). For the interaction assay, 5 µL of each of the twelve protein concentrations was added to the peptide-containing 384-well plates via the EP3 resulting in a protein dilution range of 0.002–10 µM and a final volume of 10 µL; peptide concentration was fixed at 10 nM. […] Experimental values were output as millipolarization (mP) units and imported into MATLAB (The MathWorks, Inc., Natick, MA) in which equation (1) was used to determine dissociation constants (KDs) for each protein/peptide pairing by least squares nonlinear regression. [drawing 1] (1)
# FP was described by the following equation: P=Iparallel-IperpendicularIparallel+Iperpendicular, where “P” denotes polarization, and “I” denotes the fluorescent intensity relative to the plane of incident light. Experimental values were output as millipolarization (mP) units and imported into MATLAB where the following equation was used to determine dissociation constants (KDs) for each protein/peptide pairing by least squares nonlinear regression:
# Pobs=Pmax∙ProteinKD+Protein [picture] (1)
# Peptides were initially tested for systematic plate effects across protein dilutions and nonspecific binding to thioredoxin by linear regression analysis and any effects were regressed out. The median baseline control polarization value for each plate was then subtracted from each data point to make each binding curve intersect at zero. Plates with excessive variation in baseline control polarizations on both a global and run-specific manner (Dixon’s Q test, p < 0.05) were excluded from further analysis. Outliers in each binding curve were identified and removed using an iterative procedure as follows. The residuals for each fit were used to calculate a global standard deviation of the residuals (GSDR) for each concentration of SH2 domain over all interactions, and individual data points with residuals < or > two GSDR from the global mean residual were flagged as outliers. The outlier with the largest residual from each interaction was removed and nonlinear regression was again performed. This procedure was repeated if additional outliers were identified for an interaction, discarding the interaction if the number of outliers exceeded three. […] In order to further control our false positive rate against hidden confounding variables producing binding artifacts, we sought to determine whether there was a significant relationship between the strength of an interaction and its technical replication rate at our stringent significance and filtering thresholds. We performed logistic regression on the proportion of successful replicates for each interaction query against KD for all interactions (Figure S15A). […] “High-confidence” FP interactions are defined as those having 1 - P(Observed Replication Rate | Expectation) > 0.5 and that have replicated at least twice across independent FP runs. […] The compiled FP data were organized into heatmaps generated by MATLAB and relative binding strength (µM). Peptides without at least one positive hit were classified as “no interaction” if there was no homologous sequence (i.e. identical at the +1 to +4 positions relative to the phosphotyrosine) that produced a positive interaction within the ErbB receptor family.
# RASA1-N SH2 domain = target: T3, RASA1-N SH2 domain (Homo sapiens, UniProt P20936); experiment: FP saturation binding assay
# T3 sequence (P20936 181-272 limits assumed): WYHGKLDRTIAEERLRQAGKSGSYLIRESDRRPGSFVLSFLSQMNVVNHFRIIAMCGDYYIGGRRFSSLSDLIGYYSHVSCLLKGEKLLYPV
# SH2 and PTB domains = conditions: most recent PM interactions, ref Jones et al. 2006 / Kaushansky et al. Chem and Biol 2008, cited from earlier work
# Text: Supplement pone.0044471.s022.xlsx, sheet "Most recent PM interactions" | column: Kd || Supplement pone.0044471.s022.xlsx, sheet "All original PM interactions" | column: Kd
# GRB7 SH2 domain = GRB7 SH2 domain (Homo sapiens, UniProt Q14451); design: 6X His; thioredoxin; made in house; host or cells: E. coli BL21(DE3)pLysS; conditions: Protein GRB7; most recent PM interactions; ref Jones et al. 2006 / Kaushansky et al. Chem and Biol 2008; cited from earlier work
# GRB7 SH2 domain, sequence (Q14451 431-527 limits assumed): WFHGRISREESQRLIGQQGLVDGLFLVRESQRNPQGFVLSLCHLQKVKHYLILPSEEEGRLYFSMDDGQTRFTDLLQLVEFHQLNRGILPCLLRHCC
molecule,measurement,setting,value
CC(C)C[C@H](NC(=O)[C@H](Cc1ccc(OP(=O)(O)O)cc1)NC(=O)[C@H](CCC(=O)O)NC(=O)[C@H](C)NC(=O)[C@H](CC(N)=O)NC(=O)[C@@H](N)CCC(=O)O)C(=O)N[C@@H](CCCNC(=N)N)C(=O)N[C@H](C(=O)N[C@@H](C)C(=O)N1CCC[C@H]1C(=O)N[C@@H](CCC(N)=O)C(=O)N[C@@H](CO)C(=O)N[C@@H](CC(=O)O)C(=O)O)C(C)C [ErbB1 1197 13-mer] (HELM PEPTIDE1{E.N.A.E.[O=C([C@H](Cc1ccc(OP(=O)(O)O)cc1)N[*:1])[*:2]].L.R.V.A.P.Q.S.D}$$$$V2.0),Kd,"PLCG1-C SH2 domain; Protein PLCG1-C, FP saturation binding, mean over replicate hits",5670 nM
CC(C)C[C@H](NC(=O)[C@H](Cc1ccc(OP(=O)(O)O)cc1)NC(=O)[C@H](CCC(=O)O)NC(=O)[C@H](CCC(N)=O)NC(=O)[C@H](CCCCN)NC(=O)[C@@H]1CCCN1)C(=O)N[C@@H](CC(N)=O)C(=O)N1CCC[C@H]1C(=O)N[C@H](C(=O)N[C@@H](CCC(=O)O)C(=O)N[C@@H](CCC(=O)O)C(=O)N[C@@H](CC(N)=O)C(=O)N[C@@H](CC(=O)O)C(=O)O)C(C)C [ErbB4 1162 13-mer] (HELM PEPTIDE1{P.K.Q.E.[O=C([C@H](Cc1ccc(OP(=O)(O)O)cc1)N[*:1])[*:2]].L.N.P.V.E.E.N.D}$$$$V2.0),Kd,[1],5310 nM
same,Kd,RASA1-N SH2 domain,2900 nM
CC(C)C[C@H](NC(=O)[C@H](CO)NC(=O)[C@H](Cc1ccccc1)NC(=O)[C@H](CCC(=O)O)NC(=O)[C@H](CO)NC(=O)[C@H](CC(C)C)NC(=O)[C@H](Cc1ccc(OP(=O)(O)O)cc1)NC(=O)[C@H](CCC(=O)O)NC(=O)[C@@H]1CCCN1C(=O)[C@H](CC(N)=O)NC(=O)[C@@H](N)CCC(=O)O)C(=O)N[C@@H](CCCCN)C(=O)N[C@@H](CC(=O)O)C(=O)O [ErbB4 1284 13-mer] (HELM PEPTIDE1{E.N.P.E.[O=C([C@H](Cc1ccc(OP(=O)(O)O)cc1)N[*:1])[*:2]].L.S.E.F.S.L.K.D}$$$$V2.0),Kd,"PLCG1-C SH2 domain; protein PLCG1-C, mean of replicate hits",3680 nM
AFSPAFDNLYpYWDQDPPE [ErbB2 1222],Kd,SH2 and PTB domains; Protein ABL1,1840 nM
same,Kd,SH2 and PTB domains; Protein ABL2,190 nM
same,Kd,SH2 and PTB domains; Protein BLK,50 nM
same,Kd,SH2 and PTB domains; Protein CRKL,1460 nM
same,Kd,SH2 and PTB domains; Protein GRB10,490 nM
same,Kd,SH2 and PTB domains; Protein ITK,220 nM
same,Kd,SH2 and PTB domains; Protein PIK3R1-NC,1840 nM
same,Kd,SH2 and PTB domains; Protein PIK3R3-NC,780 nM
same,Kd,SH2 and PTB domains; Protein PLCG1-NC,1790 nM
same,Kd,SH2 and PTB domains; Protein PLCG2-N,600 nM
same,Kd,SH2 and PTB domains; Protein PLCG2-NC,260 nM
same,Kd,SH2 and PTB domains; Protein RASA1-N,500 nM
same,Kd,SH2 and PTB domains; Protein RASA1-NC,220 nM
same,Kd,SH2 and PTB domains; Protein SH2B2,1470 nM
same,Kd,SH2 and PTB domains; Protein SH2D3A,1600 nM
same,Kd,SH2 and PTB domains; Protein SH2D3C,710 nM
same,Kd,SH2 and PTB domains; Protein SHC1-PTB,610 nM
same,Kd,SH2 and PTB domains; Protein SHC2-PTB,460 nM
same,Kd,SH2 and PTB domains; Protein SHC3,1710 nM
same,Kd,SH2 and PTB domains; Protein SHF,590 nM
same,Kd,SH2 and PTB domains; Protein SRC,200 nM
same,Kd,SH2 and PTB domains; Protein SYK-C,1970 nM
same,Kd,SH2 and PTB domains; Protein SYK-N,200 nM
same,Kd,SH2 and PTB domains; Protein SYK-NC,460 nM
same,Kd,SH2 and PTB domains; Protein TEC,1610 nM
same,Kd,SH2 and PTB domains; Protein TENC1,840 nM
same,Kd,SH2 and PTB domains; Protein TNS3,1290 nM
same,Kd,SH2 and PTB domains; Protein VAV3,1120 nM
same,Kd,SH2 and PTB domains; Protein YES1,220 nM
same,Kd,GRB7 SH2 domain,250 nM
